Reference: patent EP0306971A2, “Use of milk fat globules as carriers for drugs and as microflotation devices in immunoassays and cell/molecular fractionation” (Bankert, Richard B., priority 1987, dated 1989)

Assay: incorporation of adriamycin into MFG, by difference, spectrofluorometric determination
Format: physicochemical
Settings: 0.9 ml packed MFG with 0.1 ml adriamycin 1 mg/ml in PBS, overnight at room temperature
Method: The milk fat globules to be loaded with drug are obtained from raw bovine milk by centrifugation at 1,500 x g for 10 min at room temperature followed by removal of the underlying (sub-natant) aqueous material. The MFG is washed three times by the addition of phosphate buffered saline, pH 7.4 (PBS) to the original volume followed by centrifugation at 1500 x g for 10 min and removal of the sub-natant fluid. Adriamycin is rapidly and stably loaded into the MFG very efficiently by incubating 0.9 ml packed MFG with 0.1 ml adriamycin, dissolved in PBS to a concentration of 1 mg/ml, overnight at room temperature. The resultant MFG is then transferred to a 10 ml syringe fitted with a stopcock, brought to 10 ml with PBS and centrifuged at 1500 x g for 10 min. The sub-natant fluid is removed by opening the stopcock and the milk fat globule layer is washed three times by gentle suspension in PBS followed by centrifugation. […] The presence of adriamycin is detected in the MFG by its fluorescence emission at 590 nm using fluorescence microscopy. Alternatively, the amount of incorporated adriamycin can be calculated by difference, after determination of the amount of adriamycin remaining in the first sub-natant fraction by spectrofluorometric determination using an excitation wavelength of 470 nm and an emission wavelength of 590 nm. […]

added drug incorporated into the MFG: up to 80%
Compound: COc1cccc2c1C(=O)c1c(O)c3c(c(O)c1C2=O)C[C@@](O)(C(=O)CO)C[C@@H]3O[C@H]1C[C@H](N)[C@H](O)[C@H](C)O1 [adriamycin]
